Tested on: 233499-124-R-J3-PDC spheroids with HUVEC/MSC, viability
Test: Anticancer human tumor 233499-124-R-J3-PDC patient-derived colon adenocarcinoma cell line growth inhibition [PI3K]
Details: for IC50: curve of first compound; for viability, T/C: stronger effect = lower value
Procedure, shortened: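 Multi-cell spheroids combine tumor cells with HUVEC and human MSCs, treated with targeted agents alone or with inavolisib, alpelisib, duvelisib or copanlisib. Concentrations fall in half-log steps from at or near clinical Cmax, or from 10 microM where Cmax is unknown; viability read-out.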

[1] = second compound 0.0316 µM, first compound 0.0316 µM
[2] = second compound 0.0316 µM, first compound 0.1 µM
[3] = second compound 0.0316 µM, first compound 0.316 µM
[4] = second compound 0.0316 µM, first compound 1 µM
[5] = second compound 0.0316 µM, first compound 3.16 µM
[6] = second compound 0.0316 µM, first compound 10 µM
[7] = second compound 0.1 µM, first compound 0.0316 µM
[8] = second compound 0.1 µM, first compound 0.1 µM
[9] = second compound 0.1 µM, first compound 0.316 µM
[10] = second compound 0.1 µM, first compound 1 µM
[11] = second compound 0.1 µM, first compound 3.16 µM
[12] = second compound 0.1 µM, first compound 10 µM
[13] = second compound 0.316 µM, first compound 0.0316 µM
[14] = second compound 0.316 µM, first compound 0.1 µM
[15] = second compound 0.316 µM, first compound 0.316 µM
[16] = second compound 0.316 µM, first compound 1 µM
[17] = second compound 0.316 µM, first compound 3.16 µM
[18] = second compound 0.316 µM, first compound 10 µM
[19] = second compound 1 µM, first compound 0.0316 µM
[20] = second compound 1 µM, first compound 0.1 µM
[21] = second compound 1 µM, first compound 0.316 µM
[22] = second compound 1 µM, first compound 1 µM
[23] = second compound 1 µM, first compound 3.16 µM
[24] = second compound 1 µM, first compound 10 µM
[25] = second compound 3.16 µM, first compound 0.0316 µM
[26] = second compound 3.16 µM, first compound 0.1 µM
[27] = second compound 3.16 µM, first compound 0.316 µM
[28] = second compound 3.16 µM, first compound 1 µM
[29] = second compound 3.16 µM, first compound 3.16 µM
[30] = second compound 3.16 µM, first compound 10 µM
[31] = second compound 10 µM, first compound 0.0316 µM
[32] = second compound 10 µM, first compound 0.1 µM
[33] = second compound 10 µM, first compound 0.316 µM
[34] = second compound 10 µM, first compound 1 µM
[35] = second compound 10 µM, first compound 3.16 µM
[36] = second compound 10 µM, first compound 10 µM
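Also: spheroids exposed to agents for seven days before readout.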
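For viability, T/C in this document: percent viability relative to DMSO vehicle control taken as 100%.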

## C#Cc1c(F)ccc2cc(O)cc(-c3ncc4c(N5CC6CCC(C5)N6)nc(OCC56CCCN5CC(F)C6)nc4c3F)c12 (centres undefined) + Cc1nc(NC(=O)N2CCCC2C(N)=O)sc1-c1ccnc(C(C)(C)C(F)(F)F)c1
Second compound 0.0316 µM
  IC50: > 10 µM
Second compound 0.1 µM
  IC50: > 10 µM
Second compound 0.316 µM
  IC50: > 10 µM
Second compound 1 µM
  IC50: 5.78 µM
Second compound 3.16 µM
  IC50: 0.807 µM
Second compound 10 µM
  IC50: < 0.0316 µM
[1]
  viability, T/C: 91.5%
[2]
  viability, T/C: 98.2%
[3]
  viability, T/C: 79.3%
[4]
  viability, T/C: 89.2%
[5]
  viability, T/C: 81.2%
[6]
  viability, T/C: 84.5%
[7]
  viability, T/C: 108%
[8]
  viability, T/C: 107%
[9]
  viability, T/C: 91.4%
[10]
  viability, T/C: 77.7%
[11]
  viability, T/C: 81%
[12]
  viability, T/C: 104%
[13]
  viability, T/C: 88.7%
[14]
  viability, T/C: 83%
[15]
  viability, T/C: 83%
[16]
  viability, T/C: 77.1%
[17]
  viability, T/C: 50.9%
[18]
  viability, T/C: 82.4%
[19]
  viability, T/C: 77.1%
[20]
  viability, T/C: 54.9%
[21]
  viability, T/C: 83.4%
[22]
  viability, T/C: 64.4%
[23]
  viability, T/C: 64.3%
[24]
  viability, T/C: 37.7%
[25]
  viability, T/C: 65.3%
[26]
  viability, T/C: 72%
[27]
  viability, T/C: 67%
[28]
  viability, T/C: 43.6%
[29]
  viability, T/C: 33.6%
[30]
  viability, T/C: 61.2%
[31]
  viability, T/C: 30.5%
[32]
  viability, T/C: 39%
[33]
  viability, T/C: 16.3%
[34]
  viability, T/C: 26.1%
[35]
  viability, T/C: 12.4%
[36]
  viability, T/C: 4.04%

## CC1(C)CCC(Nc2ncc(C(F)(F)F)c(-c3c[nH]c4c(P(C)(C)=O)c(C#N)ccc34)n2)CN1 (centres undefined) + Cc1nc(NC(=O)N2CCCC2C(N)=O)sc1-c1ccnc(C(C)(C)C(F)(F)F)c1
Second compound 0.0316 µM
  IC50: 0.0664 µM
Second compound 0.1 µM
  IC50: 0.0326 µM
Second compound 0.316 µM
  IC50: 0.154 µM
Second compound 1 µM
  IC50: 0.0623 µM
Second compound 3.16 µM
  IC50: < 0.0316 µM
Second compound 10 µM
  IC50: < 0.0316 µM
[1]
  viability, T/C: 65.2%
[2]
  viability, T/C: 32%
[3]
  viability, T/C: 32.9%
[4]
  viability, T/C: 34.6%
[5]
  viability, T/C: 25.1%
[6]
  viability, T/C: 6.03%
[7]
  viability, T/C: 51.6%
[8]
  viability, T/C: 41.4%
[9]
  viability, T/C: 29.3%
[10]
  viability, T/C: 25.1%
[11]
  viability, T/C: 19.8%
[12]
  viability, T/C: 2.83%
[13]
  viability, T/C: 54.8%
[14]
  viability, T/C: 76.9%
[15]
  viability, T/C: 23.8%
[16]
  viability, T/C: 31.1%
[17]
  viability, T/C: 16.6%
[18]
  viability, T/C: 3.57%
[19]
  viability, T/C: 69%
[20]
  viability, T/C: 34.2%
[21]
  viability, T/C: 24%
[22]
  viability, T/C: 21.9%
[23]
  viability, T/C: 29.1%
[24]
  viability, T/C: 2.22%
[25]
  viability, T/C: 52.1%
[26]
  viability, T/C: 34.9%
[27]
  viability, T/C: 31%
[28]
  viability, T/C: 18.4%
[29]
  viability, T/C: 15.9%
[30]
  viability, T/C: 0.85%
[31]
  viability, T/C: 16.1%
[32]
  viability, T/C: 16.2%
[33]
  viability, T/C: 25.9%
[34]
  viability, T/C: 27.1%
[35]
  viability, T/C: 10.1%
[36]
  viability, T/C: 0.57%

Source: PubChem BioAssay AID1963984 (Molecular Pharmacology Branch, DTP, NCI, 2024)
